Results on one compound are retold here after ChEMBL document CHEMBL4304811, “Development of a Water-Soluble Indolylmaleimide Derivative IM-93 Showing Dual Inhibition of Ferroptosis and NETosis” (ACS Med Chem Lett, 2019).

The target of experiment [1] is Serine/threonine-protein kinase MRCK gamma (Homo sapiens) (UniProt Q6DT37). Description: Binding affinity to wild-type human partial length DMPK2 (S46 to S408 residues) expressed in bacterial expression system assessed as residual binding level at 10 uM by Kinomescan method relative to control.
Chain of Serine/threonine-protein kinase MRCK gamma (Homo sapiens) (Q6DT37 whole entry, the tested form may be a part): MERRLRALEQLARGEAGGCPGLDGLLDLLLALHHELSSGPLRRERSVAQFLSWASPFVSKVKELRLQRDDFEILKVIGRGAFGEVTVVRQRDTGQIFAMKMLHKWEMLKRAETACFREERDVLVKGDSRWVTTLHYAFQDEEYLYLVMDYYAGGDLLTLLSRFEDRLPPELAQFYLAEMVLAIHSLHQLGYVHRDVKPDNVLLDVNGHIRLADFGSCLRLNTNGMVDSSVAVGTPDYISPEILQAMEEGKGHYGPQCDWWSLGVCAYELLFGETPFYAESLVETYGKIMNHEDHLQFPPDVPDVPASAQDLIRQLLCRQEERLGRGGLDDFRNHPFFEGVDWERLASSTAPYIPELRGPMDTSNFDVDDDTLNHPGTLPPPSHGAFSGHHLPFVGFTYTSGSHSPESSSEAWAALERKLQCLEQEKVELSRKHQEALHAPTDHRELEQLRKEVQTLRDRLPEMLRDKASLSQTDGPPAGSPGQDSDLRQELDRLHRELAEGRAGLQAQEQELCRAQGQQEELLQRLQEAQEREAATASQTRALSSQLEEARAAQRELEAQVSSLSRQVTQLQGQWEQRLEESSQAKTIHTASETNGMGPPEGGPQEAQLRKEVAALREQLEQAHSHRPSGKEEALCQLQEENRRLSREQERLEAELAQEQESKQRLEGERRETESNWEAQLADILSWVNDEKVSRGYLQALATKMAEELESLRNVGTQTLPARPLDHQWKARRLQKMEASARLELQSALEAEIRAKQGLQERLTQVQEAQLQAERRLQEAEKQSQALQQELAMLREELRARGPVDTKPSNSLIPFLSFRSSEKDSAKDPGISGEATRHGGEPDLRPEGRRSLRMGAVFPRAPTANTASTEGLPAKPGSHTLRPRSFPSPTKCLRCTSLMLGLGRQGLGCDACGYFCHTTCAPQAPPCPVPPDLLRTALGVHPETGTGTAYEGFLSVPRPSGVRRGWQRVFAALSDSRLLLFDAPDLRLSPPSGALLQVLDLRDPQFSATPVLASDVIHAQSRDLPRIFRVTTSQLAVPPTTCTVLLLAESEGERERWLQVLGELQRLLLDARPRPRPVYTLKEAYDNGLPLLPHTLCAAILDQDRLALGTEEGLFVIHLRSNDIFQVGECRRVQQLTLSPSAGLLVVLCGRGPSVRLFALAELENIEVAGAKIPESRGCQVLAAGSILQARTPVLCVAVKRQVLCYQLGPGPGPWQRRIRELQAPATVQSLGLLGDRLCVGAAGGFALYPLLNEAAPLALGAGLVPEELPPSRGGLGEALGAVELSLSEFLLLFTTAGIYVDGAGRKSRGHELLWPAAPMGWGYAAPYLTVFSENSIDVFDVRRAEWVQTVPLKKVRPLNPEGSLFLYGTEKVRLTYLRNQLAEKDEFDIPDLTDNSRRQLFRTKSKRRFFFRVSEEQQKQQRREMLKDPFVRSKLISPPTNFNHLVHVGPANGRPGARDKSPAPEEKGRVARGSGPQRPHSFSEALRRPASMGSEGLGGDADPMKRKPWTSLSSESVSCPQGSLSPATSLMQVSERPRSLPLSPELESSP
Experiment [2] concerns the target Serine/threonine-protein kinase SIK1 (Homo sapiens) (UniProt P57059). Description: Binding affinity to wild-type human partial length SIK (M1 to Y304 residues) expressed in bacterial expression system assessed as residual binding level at 10 uM by Kinomescan method relative to control.
For experiment [3], the target named is Hepatocyte growth factor receptor (Homo sapiens) (UniProt P08581). Description: Binding affinity to wild-type human partial length MET (D1010 to S1367 residues) expressed in bacterial expression system assessed as residual binding level at 10 uM by Kinomescan method relative to control.
Experiment [4] deals with Cyclin-dependent kinase 9 (Homo sapiens) (UniProt P50750). The experiment can be described thus: Binding affinity to wild-type human full length CDK9 (M1 to F372 residues) expressed in bacterial expression system assessed as residual binding level at 10 uM by Kinomescan method relative to control.
The target in experiment [5] is Rhodopsin kinase GRK7 (Homo sapiens) (UniProt Q8WTQ7). Description: Binding affinity to wild-type human full length GRK7 (M1 to L553 residues) expressed in mammalian expression system assessed as residual binding level at 10 uM by Kinomescan method relative to control.
Chain of Rhodopsin kinase GRK7 (Homo sapiens) (Q8WTQ7 whole entry, the tested form may be a part): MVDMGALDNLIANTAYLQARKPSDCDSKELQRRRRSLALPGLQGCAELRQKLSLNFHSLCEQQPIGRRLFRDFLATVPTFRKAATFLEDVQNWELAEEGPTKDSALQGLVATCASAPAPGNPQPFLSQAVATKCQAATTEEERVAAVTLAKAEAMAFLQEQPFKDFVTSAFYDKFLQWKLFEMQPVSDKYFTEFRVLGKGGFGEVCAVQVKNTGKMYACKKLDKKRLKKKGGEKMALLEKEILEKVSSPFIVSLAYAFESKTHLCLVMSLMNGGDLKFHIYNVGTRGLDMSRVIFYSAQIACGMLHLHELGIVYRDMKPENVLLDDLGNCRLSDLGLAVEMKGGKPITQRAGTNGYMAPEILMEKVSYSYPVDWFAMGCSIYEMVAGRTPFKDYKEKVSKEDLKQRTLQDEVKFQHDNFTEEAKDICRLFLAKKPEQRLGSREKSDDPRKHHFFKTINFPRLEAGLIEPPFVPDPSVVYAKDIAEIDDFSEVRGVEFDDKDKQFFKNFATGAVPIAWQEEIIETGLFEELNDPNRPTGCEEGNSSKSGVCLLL
Experiment [6] addresses Non-receptor tyrosine-protein kinase TNK1 (Homo sapiens) (UniProt Q13470). The experiment can be described thus: Binding affinity to wild-type human full length TNK1 (M1 to P661 residues) expressed in bacterial expression system assessed as residual binding level at 10 uM by Kinomescan method relative to control.
For experiment [7], the target named is Ephrin type-A receptor 3 (Homo sapiens) (UniProt P29320). The experiment can be described thus: Binding affinity to wild-type human partial length EPHA3 (D604 to K889 residues) expressed in bacterial expression system assessed as residual binding level at 10 uM by Kinomescan method relative to control.
For experiment [8], the target named is Cyclin-dependent kinase-like 5 (Homo sapiens) (UniProt O76039). Description: Binding affinity to wild-type human partial length CDKL5 (M1 to S337 residues) expressed in mammalian expression system assessed as residual binding level at 10 uM by Kinomescan method relative to control.
The target in experiment [9] is Serine/threonine-protein kinase ULK3 (Homo sapiens) (UniProt Q6PHR2). Description: Binding affinity to wild-type human partial length ULK3 (M1 to Q290 residues) expressed in mammalian expression system assessed as residual binding level at 10 uM by Kinomescan method relative to control.
Experiment [10] has as its target Mitogen-activated protein kinase 14 (Homo sapiens) (UniProt Q16539). The experiment can be described thus: Binding affinity to wild-type human full length p38-alpha (M1 to S360 residues) expressed in bacterial expression system assessed as residual binding level at 10 uM by Kinomescan method relative to control.
Experiment [11] deals with Ribosomal protein S6 kinase alpha-6 (Homo sapiens) (UniProt Q9UK32). Description: Binding affinity to wild-type human partial length N- terminal RSK4 kinase domain 1 (M1 to E397 residues) expressed in mammalian expression system assessed as residual binding level at 10 uM by Kinomescan method relative to control.
Experiment [12] deals with Serine/threonine-protein kinase 4 (Homo sapiens) (UniProt Q13043). The experiment can be described thus: Binding affinity to wild-type human full length MST1 (M1 to F487 residues) expressed in bacterial expression system assessed as residual binding level at 10 uM by Kinomescan method relative to control.
The target in experiment [13] is Phosphatidylinositol 5-phosphate 4-kinase type-2 gamma (Homo sapiens) (UniProt Q8TBX8). Description: Binding affinity to wild-type human partial length PIP5K2C (M1 to A421 residues) expressed in mammalian expression system assessed as residual binding level at 10 uM by Kinomescan method relative to control.
The target of experiment [14] is Tyrosine-protein kinase Yes (Homo sapiens) (UniProt P07947). Description: Binding affinity to wild-type human partial length YES (T257 to L543 residues) expressed in bacterial expression system assessed as residual binding level at 10 uM by Kinomescan method relative to control.
The target of experiment [15] is Tyrosine-protein kinase JAK3 (Homo sapiens) (UniProt P52333). The experiment can be described thus: Binding affinity to wild-type human partial length JAK3 JH1 catalytic domain (I781 to S1124 residues) expressed in mammalian expression system assessed as residual binding level at 10 uM by Kinomescan method relative to control.
Chain of Tyrosine-protein kinase JAK3 (Homo sapiens) (P52333 whole entry, the tested form may be a part): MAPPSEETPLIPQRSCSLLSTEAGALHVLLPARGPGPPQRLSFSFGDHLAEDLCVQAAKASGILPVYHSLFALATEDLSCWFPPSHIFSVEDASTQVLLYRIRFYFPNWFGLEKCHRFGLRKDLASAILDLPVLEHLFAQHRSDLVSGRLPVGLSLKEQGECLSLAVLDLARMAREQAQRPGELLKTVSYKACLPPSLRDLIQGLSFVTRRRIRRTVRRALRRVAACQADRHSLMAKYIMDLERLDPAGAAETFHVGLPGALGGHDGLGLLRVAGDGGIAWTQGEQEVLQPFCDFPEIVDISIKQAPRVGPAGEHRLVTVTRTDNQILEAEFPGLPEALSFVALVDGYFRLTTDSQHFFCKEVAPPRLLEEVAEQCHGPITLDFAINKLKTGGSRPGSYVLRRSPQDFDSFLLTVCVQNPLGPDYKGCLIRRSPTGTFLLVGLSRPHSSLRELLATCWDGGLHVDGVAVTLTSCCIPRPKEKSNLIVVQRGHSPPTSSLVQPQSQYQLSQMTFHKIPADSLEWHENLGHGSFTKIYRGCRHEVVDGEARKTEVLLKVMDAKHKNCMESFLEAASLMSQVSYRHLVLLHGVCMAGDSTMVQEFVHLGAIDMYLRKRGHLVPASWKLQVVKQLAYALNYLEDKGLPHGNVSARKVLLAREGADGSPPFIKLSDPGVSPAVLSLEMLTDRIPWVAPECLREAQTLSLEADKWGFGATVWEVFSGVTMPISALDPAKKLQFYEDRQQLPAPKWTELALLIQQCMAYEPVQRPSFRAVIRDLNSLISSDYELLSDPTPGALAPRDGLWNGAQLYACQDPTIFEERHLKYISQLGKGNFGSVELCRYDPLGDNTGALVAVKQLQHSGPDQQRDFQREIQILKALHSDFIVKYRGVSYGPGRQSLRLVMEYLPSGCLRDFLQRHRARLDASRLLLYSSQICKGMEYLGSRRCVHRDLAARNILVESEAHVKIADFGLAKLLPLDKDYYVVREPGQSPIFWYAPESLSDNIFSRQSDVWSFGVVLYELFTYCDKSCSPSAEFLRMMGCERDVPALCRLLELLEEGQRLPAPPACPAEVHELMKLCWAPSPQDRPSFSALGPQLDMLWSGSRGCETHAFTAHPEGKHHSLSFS
For experiment [16], the target named is Serine/threonine-protein kinase B-raf (Homo sapiens) (UniProt P15056). Description: Binding affinity to wild-type human partial length BRAF (S429 to E741 residues) expressed in mammalian expression system assessed as residual binding level at 10 uM by Kinomescan method relative to control.
Experiment [17] addresses Phosphatidylinositol 4-phosphate 5-kinase type-1 gamma (Homo sapiens) (UniProt O60331). Description: Binding affinity to wild-type human partial length PIP5K1C (M1 to T668 residues) expressed in mammalian expression system assessed as residual binding level at 10 uM by Kinomescan method relative to control.
Experiment [18] deals with Fibroblast growth factor receptor 2 (Homo sapiens) (UniProt P21802). Description: Binding affinity to wild-type human partial length FGFR2 (D457 to E769 residues) expressed in bacterial expression system assessed as residual binding level at 10 uM by Kinomescan method relative to control.
The test system of experiment [19] is Proto-oncogene tyrosine-protein kinase receptor Ret (Homo sapiens), P07949 [V804L]. Description: Binding affinity to human partial length RET V804L mutant (E713 to D1014 residues) expressed in bacterial expression system assessed as residual binding level at 10 uM by Kinomescan method relative to control.
The target in experiment [20] is Rho-associated protein kinase 2 (Homo sapiens) (UniProt O75116). The experiment can be described thus: Binding affinity to wild-type human partial length ROCK2 (M1 to T431 residues) expressed in mammalian expression system assessed as residual binding level at 10 uM by Kinomescan method relative to control.
In experiment [21] the target is Myosin-IIIa (Homo sapiens) (UniProt Q8NEV4). The experiment can be described thus: Binding affinity to wild-type human partial length MYO3A (M1 to K338 residues) expressed in bacterial expression system assessed as residual binding level at 10 uM by Kinomescan method relative to control.
Experiment [22] deals with Mast/stem cell growth factor receptor Kit (Homo sapiens), P10721 [UNDEFINED MUTATION]. The experiment can be described thus: Binding affinity to human partial length KIT V559D/V654 double mutant (Y545 to D952 residues) expressed in bacterial expression system assessed as residual binding level at 10 uM by Kinomescan method relative to control.
For experiment [23], the target named is Muscle, skeletal receptor tyrosine-protein kinase (Homo sapiens) (UniProt O15146). The experiment can be described thus: Binding affinity to wild-type human partial length MUSK (M553 to V869 residues) expressed in bacterial expression system assessed as residual binding level at 10 uM by Kinomescan method relative to control.
Experiment [24] deals with Tyrosine-protein kinase ABL1 (Homo sapiens), P00519 [F317I]. Description: Binding affinity to human phosphorylated ABL1 F317I mutant (S229 to K512 residues) expressed in mammalian expression system assessed as residual binding level at 10 uM by Kinomescan method relative to control.

Chain of Non-receptor tyrosine-protein kinase TNK1 (Homo sapiens) (Q13470 whole entry, the tested form may be a part): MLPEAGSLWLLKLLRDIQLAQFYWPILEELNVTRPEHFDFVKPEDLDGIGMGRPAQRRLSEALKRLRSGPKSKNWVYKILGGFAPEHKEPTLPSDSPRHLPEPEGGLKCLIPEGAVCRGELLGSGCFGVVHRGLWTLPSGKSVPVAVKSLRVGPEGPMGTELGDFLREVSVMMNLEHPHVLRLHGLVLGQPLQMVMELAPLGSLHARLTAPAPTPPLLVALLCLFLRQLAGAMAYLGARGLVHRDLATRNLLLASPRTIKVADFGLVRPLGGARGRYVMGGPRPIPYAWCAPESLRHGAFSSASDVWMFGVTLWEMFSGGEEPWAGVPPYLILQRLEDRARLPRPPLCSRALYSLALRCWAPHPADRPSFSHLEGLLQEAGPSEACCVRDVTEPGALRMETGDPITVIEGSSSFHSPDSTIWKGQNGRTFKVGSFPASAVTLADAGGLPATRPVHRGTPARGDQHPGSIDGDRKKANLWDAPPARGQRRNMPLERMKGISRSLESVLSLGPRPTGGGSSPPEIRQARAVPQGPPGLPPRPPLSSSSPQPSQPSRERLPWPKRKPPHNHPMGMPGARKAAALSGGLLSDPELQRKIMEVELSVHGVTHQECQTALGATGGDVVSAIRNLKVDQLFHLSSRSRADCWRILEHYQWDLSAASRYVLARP
Chain of Serine/threonine-protein kinase SIK1 (Homo sapiens) (P57059 whole entry, the tested form may be a part): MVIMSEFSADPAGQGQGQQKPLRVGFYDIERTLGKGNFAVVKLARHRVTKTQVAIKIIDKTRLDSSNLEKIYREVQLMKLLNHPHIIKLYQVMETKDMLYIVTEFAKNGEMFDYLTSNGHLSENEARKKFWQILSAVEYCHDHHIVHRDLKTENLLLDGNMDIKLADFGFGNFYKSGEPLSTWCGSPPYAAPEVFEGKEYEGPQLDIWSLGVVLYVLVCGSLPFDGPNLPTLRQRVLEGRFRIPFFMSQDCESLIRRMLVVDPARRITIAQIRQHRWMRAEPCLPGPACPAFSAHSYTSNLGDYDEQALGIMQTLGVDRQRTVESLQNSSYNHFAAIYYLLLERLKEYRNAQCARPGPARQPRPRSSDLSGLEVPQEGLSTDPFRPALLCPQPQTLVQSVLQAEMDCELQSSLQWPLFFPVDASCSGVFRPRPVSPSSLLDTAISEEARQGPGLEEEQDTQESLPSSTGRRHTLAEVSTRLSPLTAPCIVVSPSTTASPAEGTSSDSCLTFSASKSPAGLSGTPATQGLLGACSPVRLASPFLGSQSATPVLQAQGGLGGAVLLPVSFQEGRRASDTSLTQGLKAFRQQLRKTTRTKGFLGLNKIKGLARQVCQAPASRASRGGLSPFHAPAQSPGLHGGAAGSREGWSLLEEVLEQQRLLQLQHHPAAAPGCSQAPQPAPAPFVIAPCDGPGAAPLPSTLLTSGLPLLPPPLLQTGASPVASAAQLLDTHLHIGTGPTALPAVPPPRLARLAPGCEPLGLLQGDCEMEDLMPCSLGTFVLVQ
Chain of Mitogen-activated protein kinase 14 (Homo sapiens) (Q16539 whole entry, the tested form may be a part): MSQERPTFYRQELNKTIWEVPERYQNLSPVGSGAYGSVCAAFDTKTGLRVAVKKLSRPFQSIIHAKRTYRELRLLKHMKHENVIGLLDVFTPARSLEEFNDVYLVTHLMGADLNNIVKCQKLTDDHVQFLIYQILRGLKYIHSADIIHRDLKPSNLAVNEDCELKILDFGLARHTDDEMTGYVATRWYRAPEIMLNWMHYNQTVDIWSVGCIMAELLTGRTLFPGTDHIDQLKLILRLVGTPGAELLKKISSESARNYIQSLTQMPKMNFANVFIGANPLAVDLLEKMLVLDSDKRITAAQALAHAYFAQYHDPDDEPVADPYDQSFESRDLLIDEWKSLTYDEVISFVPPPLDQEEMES

Take `CC(C)N1C(=O)C(NCCCN(C)C)=C(c2cn(C)c3ccccc23)C1=O.Cl`: the Activity in experiment [1] was determined as 93%; in [2] it was 95%; in [3] it was 97%; in [4], 100%; in [5], 97%; in [6] it was 95%. Further, the Activity in experiment [7] stood at 100%; in experiment [8], 96%; in experiment [9], 79%; in experiment [10], 100%; in experiment [11], 94%; in [12], 93%. Further, the Activity worked out at 83% in experiment [13]; 100% in experiment [14]; 81% in [15]; 89% in experiment [16]; 96% in [17]; 100% in [18]. For the same compound, the Activity stood at 90% in experiment [19]; 100% in experiment [20]; 89% in experiment [21]; 95% in [22]; 100% in experiment [23]; 87% in experiment [24].
